Measured values taken from patent US8501242B2, “Methods and compositions for treating neoplasia” (University of Florida Research Foundation, priority 2009, dated 2013).

What was measured:
[1] = target: human thymidylate synthase (Homo sapiens, UniProt P04818); assay: spectrophotometric assay of human thymidylate synthase activity; format: biochemical; conditions: for Ki: Table 2, kinetic parameters of TS in presence of selected compounds
Procedure: A spectrophotometric assay is used to test compounds for their inhibitory activity against human thymidylate synthase activity. This assay is a modification of the assay of Wahba, A. J., and Friedkin, M. (1961). Direct spectrophotometric evidence for the oxidation of tetrahydrofolate during the enzymatic synthesis of thymidylate (J. Biol. Chem. 236, PC11-12).
In the spectrophotometric assay, human thymidylate synthase is preincubated with deoxyuridine monophosphate (and inhibitors) in 96-well plates for 0-5 minutes at room temperature and fresh 5,10-methylene tetrahydrofolate (THF) is added to the mixture immediately before the reaction to yield a volume of 100 μl. 5,10-methylene tetrahydrofolate is prepared fresh prior to every experiment by dissolving THF in 0.26 M formaldehyde, 80 mM dithiothreitol, and 50 mM Tris HCI (pH 6.8/7.0). X-ray crystallography is then utilized to identify any binding site in human thymidylate synthase for an inhibitor and also to characterize its mechanism of action.
The 40 highest scoring compounds in the above-mentioned screening assay were obtained and tested for their abilities to inhibit the biochemical activity of human thymidylate synthase. Four compounds were inhibitory and preliminary studies show the enzyme mechanism to be non-competitive (i.e. through modulating or interfering with association among human thymidylate synthase monomers).

HT29 = assay: cell proliferation experiments, combination with 5-FU; format: cell-based, human; conditions: combination of CNX treatment with 5-FU versus 5FU alone
Description: (§1) The combination of certain compounds (e.g., CNX) with certain anti-cancer compounds (e.g., 5-FU) can produce synergistic anticancer effects.

HeLa = assay: as above; format: cell-based, human; conditions: combination of CNX treatment with 5-FU versus 5FU alone
Description: as §1

Sequence of human thymidylate synthase (P04818 whole entry): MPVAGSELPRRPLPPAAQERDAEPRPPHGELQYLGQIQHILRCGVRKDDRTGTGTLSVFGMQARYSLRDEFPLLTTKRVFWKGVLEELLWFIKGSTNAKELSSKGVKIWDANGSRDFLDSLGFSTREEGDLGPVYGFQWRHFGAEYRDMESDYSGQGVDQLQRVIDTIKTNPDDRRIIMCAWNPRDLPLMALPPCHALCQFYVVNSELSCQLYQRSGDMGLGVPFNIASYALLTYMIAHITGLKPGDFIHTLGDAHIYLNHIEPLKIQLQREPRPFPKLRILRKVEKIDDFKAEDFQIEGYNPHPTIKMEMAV

Row | Structure (SMILES) | Ki [1] | also measured
1 | O=c1[nH]cc(F)c(=O)[nH]1 [5-FU, 5-fluorouracil, reference compound] | 56.7 µM | –
2 | O=P(O)(O)OCC(O)CO (stereo not drawn) [NSC9231, 2,3-Dihydroxypropyl dihydrogen phosphate] | 2.12 µM | –
3 | O=C(O)C(S)C(S)C(=O)O (stereo not drawn) [NSC16867, 2,3-Dimercaptosuccinic acid] | 45.5 µM | –
4 | CCN(CC)S(=O)(=O)c1ccc(C(=O)O)cc1 [NSC49467, P-(Diethylsulfamoyl)benzoic acid] | 177 µM | –
5 | O=C(O)Cn1cc(I)c(=O)c(I)c1 [NSC60718, (3,5-diiodo-4-oxo-1(4H)-pyridinyl)acetic acid] | 29.8 µM | –
6 | CC(=O)NC(CS)C(=O)O (stereo not drawn) [NSC111180, 2-acetamido-3-sulfanylpropanoic acid] | 602 µM | –
7 | CC(=O)Nc1c(I)cc(I)c(C(=O)O)c1I [NSC141235, 3-(acetylamino)-2,4,6-triiodobenzoic acid.6-(methylamino)hexane-1,2,3,4,5-pentol] | 5.4 µM | –
8 | CCn1nc(C(=O)O)c(=O)c2cc3c(cc21)OCO3 [NSC304467, 1-Ethyl-4-oxo-1,4-dihydro[1,3]dioxolo[4,5-g]cinnoline-3-carboxylic acid] | 0.32 µM | enzyme mechanism of TS inhibition [1]: non-competitive; inhibiting TS activity (in words) [1]: potent; inhibitory effect on cell proliferation (HT29): greater inhibitory effects than 5FU alone; inhibitory effect on cell proliferation (HeLa): greater inhibitory effects than 5FU alone
